Converted amounts (≈) assume the structure as drawn.
test system: S. aureus MP-549 msr(a) USA 300; test: MIC determination; format: cell-based; conditions: Staphylococcus aureus, USA300, S. aureus MP-549 msr(a) USA 300

SMILES | MIC [µg/mL]
CSC1O[C@H]([C@H](NC(=O)[C@H]2NC[C@@H]3CC(c4ccc(C)cc4)=CCO[C@H]32)[C@H](C)Cl)C(O)[C@@H](O)[C@H]1O (some centres unmarked) [FSA-511019] | 0.5 (≈ 0.949 µM)
CSC1O[C@H]([C@H](NC(=O)[C@H]2NC[C@@H]3C[C@@H](c4ccc(C#N)cc4)CCO[C@H]32)[C@H](C)Cl)C(O)[C@@H](O)[C@H]1O (some centres unmarked) [FSA-511046] | 0.5 (≈ 0.926 µM)

test system: K. pneumoniae ATCC 10031; test: MIC determination; format: cell-based; conditions: Klebsiella pneumoniae, ATCC10031

SMILES | MIC [µg/mL]
CSC1O[C@H]([C@H](NC(=O)[C@H]2NC[C@@H]3C[C@@H](c4ccc(C#N)cc4)CCO[C@H]32)[C@H](C)Cl)C(O)[C@@H](O)[C@H]1O (some centres unmarked) [FSA-511046] | 16 (≈ 29.6 µM)

same assay, conditions: Klebsiella pneumoniae, ATCC10031; K. pneumoniae ATCC 10031; read-out: MIC

SMILES | MIC [µg/mL]
CSC1O[C@H]([C@H](NC(=O)[C@H]2NC[C@@H]3CC(c4ccc(C)cc4)=CCO[C@H]32)[C@H](C)Cl)C(O)[C@@H](O)[C@H]1O (some centres unmarked) [FSA-511019] | > 64

test system: E. coli ATCC 25922; test: MIC determination; format: cell-based; conditions: Escherichia coli, ATCC25922, E. coli ATCC 25922; read-out: MIC

SMILES | MIC [µg/mL]
CSC1O[C@H]([C@H](NC(=O)[C@H]2NC[C@@H]3CC(c4ccc(C)cc4)=CCO[C@H]32)[C@H](C)Cl)C(O)[C@@H](O)[C@H]1O (some centres unmarked) [FSA-511019] | > 64
CSC1O[C@H]([C@H](NC(=O)[C@H]2NC[C@@H]3C[C@@H](c4ccc(C#N)cc4)CCO[C@H]32)[C@H](C)Cl)C(O)[C@@H](O)[C@H]1O (some centres unmarked) [FSA-511046] | > 64

test system: S. aureus ATCC 29213; test: MIC determination; format: cell-based; conditions: S. aureus ATCC 29213

SMILES | MIC [µg/mL]
CSC1O[C@H]([C@H](NC(=O)[C@H]2NC[C@@H]3C[C@@H](c4ccc(C#N)cc4)CCO[C@H]32)[C@H](C)Cl)C(O)[C@@H](O)[C@H]1O (some centres unmarked) [FSA-511046] | 1 (≈ 1.85 µM)

same assay, conditions: Staphylococcus aureus, ATCC29213

SMILES | MIC [µg/mL]
CSC1O[C@H]([C@H](NC(=O)[C@H]2NC[C@@H]3CC(c4ccc(C)cc4)=CCO[C@H]32)[C@H](C)Cl)C(O)[C@@H](O)[C@H]1O (some centres unmarked) [FSA-511019] | 0.5 (≈ 0.949 µM)

test system: S. pneumoniae ATCC 49619; test: MIC determination; format: cell-based; conditions: Streptococcus pneumoniae, ATCC49619; S. pneumoniae ATCC 49619; read-out: MIC

SMILES | MIC [µg/mL]
CSC1O[C@H]([C@H](NC(=O)[C@H]2NC[C@@H]3CC(c4ccc(C)cc4)=CCO[C@H]32)[C@H](C)Cl)C(O)[C@@H](O)[C@H]1O (some centres unmarked) [FSA-511019] | 0.25 (≈ 0.474 µM)
CSC1O[C@H]([C@H](NC(=O)[C@H]2NC[C@@H]3C[C@@H](c4ccc(C#N)cc4)CCO[C@H]32)[C@H](C)Cl)C(O)[C@@H](O)[C@H]1O (some centres unmarked) [FSA-511046] | ≤ 0.06

test system: E. coli MP-74 LptD mutant; test: MIC determination; format: cell-based; conditions: Escherichia coli

SMILES | MIC [µg/mL]
CSC1O[C@H]([C@H](NC(=O)[C@H]2NC[C@@H]3CC(c4ccc(C)cc4)=CCO[C@H]32)[C@H](C)Cl)C(O)[C@@H](O)[C@H]1O (some centres unmarked) [FSA-511019] | 64 (≈ 121 µM)
CSC1O[C@H]([C@H](NC(=O)[C@H]2NC[C@@H]3C[C@@H](c4ccc(C#N)cc4)CCO[C@H]32)[C@H](C)Cl)C(O)[C@@H](O)[C@H]1O (some centres unmarked) [FSA-511046] | 32 (≈ 59.3 µM)

test system: H. influenzae ATCC 49247; test: MIC determination; format: cell-based; conditions: Haemophilus influenzae, ATCC49247

SMILES | MIC [µg/mL]
CSC1O[C@H]([C@H](NC(=O)[C@H]2NC[C@@H]3CC(c4ccc(C)cc4)=CCO[C@H]32)[C@H](C)Cl)C(O)[C@@H](O)[C@H]1O (some centres unmarked) [FSA-511019] | 64 (≈ 121 µM)
CSC1O[C@H]([C@H](NC(=O)[C@H]2NC[C@@H]3C[C@@H](c4ccc(C#N)cc4)CCO[C@H]32)[C@H](C)Cl)C(O)[C@@H](O)[C@H]1O (some centres unmarked) [FSA-511046] | 16 (≈ 29.6 µM)

test system: E. faecalis ATCC 29212; test: MIC determination; format: cell-based; conditions: Enterococcus faecalis, ATCC29212, read-out: MIC

SMILES | MIC [µg/mL]
CSC1O[C@H]([C@H](NC(=O)[C@H]2NC[C@@H]3CC(c4ccc(C)cc4)=CCO[C@H]32)[C@H](C)Cl)C(O)[C@@H](O)[C@H]1O (some centres unmarked) [FSA-511019] | 4 (≈ 7.59 µM)
CSC1O[C@H]([C@H](NC(=O)[C@H]2NC[C@@H]3C[C@@H](c4ccc(C#N)cc4)CCO[C@H]32)[C@H](C)Cl)C(O)[C@@H](O)[C@H]1O (some centres unmarked) [FSA-511046] | 1 (≈ 1.85 µM)

test system: S. pyogenes ATCC 19615; test: MIC determination; format: cell-based; conditions: Streptococcus pyogenes, ATCC19615; S. pyogenes ATCC 19615; read-out: MIC

SMILES | MIC [µg/mL]
CSC1O[C@H]([C@H](NC(=O)[C@H]2NC[C@@H]3CC(c4ccc(C)cc4)=CCO[C@H]32)[C@H](C)Cl)C(O)[C@@H](O)[C@H]1O (some centres unmarked) [FSA-511019] | 0.125 (≈ 0.237 µM)
CSC1O[C@H]([C@H](NC(=O)[C@H]2NC[C@@H]3C[C@@H](c4ccc(C#N)cc4)CCO[C@H]32)[C@H](C)Cl)C(O)[C@@H](O)[C@H]1O (some centres unmarked) [FSA-511046] | ≤ 0.06

test system: E. coli MP-9 ΔTolC; test: MIC determination; format: cell-based; conditions: Escherichia coli

SMILES | MIC [µg/mL]
CSC1O[C@H]([C@H](NC(=O)[C@H]2NC[C@@H]3CC(c4ccc(C)cc4)=CCO[C@H]32)[C@H](C)Cl)C(O)[C@@H](O)[C@H]1O (some centres unmarked) [FSA-511019] | 32 (≈ 60.7 µM)
CSC1O[C@H]([C@H](NC(=O)[C@H]2NC[C@@H]3C[C@@H](c4ccc(C#N)cc4)CCO[C@H]32)[C@H](C)Cl)C(O)[C@@H](O)[C@H]1O (some centres unmarked) [FSA-511046] | 8 (≈ 14.8 µM)
